Source: patent publication US11066414B2, “Cot modulators and methods of use thereof” (Gilead Sciences, Inc., priority 2015, dated 2021)
Where two headings read alike, the source gives them in different places.

Tests used:
TNFα = test: Cot Monocyte TNFα Cell Based Assay
Description: The cell suspension was then plated at a density of 5,000 cells/well onto black 384 well Greiner clear bottom plates. Plates were pre-spotted with test compounds and serially diluted in DMSO where 200 nL/well were delivered using the Echo 550 acoustic liquid dispenser (Labcyte®) for a final DMSO concentration of 0.5%. Plated cells were treated with compound for 1 hour at 37° C. Cells were then stimulated with 50 pg/ml of LPS (Sigma) excluding outside columns of plate used for unstimulated cell control wells. Cells were incubated for an additional 4 hours at 37° C. Cells were then spun out of the media and 5 μl of sample were taken and analyzed for total TNFα content using the TR-FRET Human TNFα detection system (CisBio). This system utilizes two labeled antibodies (cryptate and XL665) that bind to two different epitopes of the TNFα molecule and produce FRET signal proportional to the concentration of TNFα in the sample. […] Plates were covered with clear seals and incubated at room temp overnight. […] Percent of control was calculated as follows: % Control=100×(RatioSample−Ratio0% Stimulation)/(Ratio100% Stimulation−Ratio0% Stimulation) where unstimulated cells (0% stimulation) were the negative control and stimulated cells (100% stimulation) were used as the positive control.

Human Cot = Human Cot (Homo sapiens (Human), UniProt P41279); test: High Throughput Cot Biochemical Assay
[1] = Homo sapiens, Monocyte, read-out: EC50 TNF, LPS-stimulated human monocytes, TNFα
[2] = IC50 HTRF, Cot HTRF (TR-FRET) biochemical assay
[3] = Homo sapiens, Monocyte, read-out: EC50 TNF, LPS-stimulated human monocytes, TNFα TR-FRET
[4] = IC50 HTRF, Cot HTRF (TR-FRET KinEASE) biochemical assay, 400 μM ATP
[5] = read-out: EC50 TNF, LPS-stimulated human monocytes, TNFα TR-FRET
[6] = read-out: IC50 HTRF, Cot HTRF (TR-FRET KinEASE) biochemical assay, 400 μM ATP
[7] = read-out: EC50 TNF, LPS-stimulated human monocytes, TNFα
[8] = read-out: IC50 HTRF, Cot HTRF (TR-FRET) biochemical assay

Sequence of Human Cot (P41279 30-397): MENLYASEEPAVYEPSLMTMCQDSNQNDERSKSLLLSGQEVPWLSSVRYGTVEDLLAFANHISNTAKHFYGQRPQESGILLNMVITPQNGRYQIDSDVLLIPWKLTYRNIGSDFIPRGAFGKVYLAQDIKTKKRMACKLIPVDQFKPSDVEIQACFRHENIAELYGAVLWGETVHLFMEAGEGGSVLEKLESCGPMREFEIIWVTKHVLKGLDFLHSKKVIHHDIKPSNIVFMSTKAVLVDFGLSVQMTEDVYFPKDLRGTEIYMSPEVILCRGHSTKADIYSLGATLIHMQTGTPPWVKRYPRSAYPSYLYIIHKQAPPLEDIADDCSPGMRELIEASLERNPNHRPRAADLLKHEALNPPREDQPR

| Compound | EC50 (TNFα; [1]) [nM] | IC50 (Human Cot; [2]) [nM] | other results |
| --- | --- | --- | --- |
| CC(C)(C)CNc1c(C#N)cnc2c(Cl)cc(N[C@H](c3cn(C4(C(F)(F)F)CC4)nn3)c3cnn4ncccc34)cc12 [Example 493, (S)-8-chloro-4-(neopentylamino)-6-((pyrazolo[1,5-b]pyridazin-3-yl(1-(1-(trifluoromethyl)cyclopropyl)-1H-1,2,3-triazol-4-yl)methyl)amino)quinoline-3-carbonitrile] | 1000 | 31 |  |
| CC[C@@H](Nc1c(C#N)cnc2c(Cl)cc(N[C@@H](c3cccnc3)c3cn(C(C)C)nn3)cc12)c1ccccc1 [Example 193, 8-chloro-6-(((S)-(1-isopropyl-1H-1,2,3-triazol-4-yl)(pyridin-3-yl)methyl)amino)-4-(((R)-1-phenylpropyl)amino)quinoline-3-carbonitrile] | 107 | 2 |  |
| CC(C)(C)CNc1c(C#N)cnc2c(Cl)cc(N[C@@H](c3cccnc3)c3cn(C4COC4)nn3)cc12 [Example 168, (S)-8-chloro-4-(neopentylamino)-6-(((1-(oxetan-3-yl)-1H-1,2,3-triazol-4-yl)(pyridin-3-yl)methyl)amino)quinoline-3-carbonitrile] | 394 | 6 |  |
| CC(C)(CNc1c(C#N)cnc2c(Cl)cc(N[C@H](c3cn(C45CC(C4)C5)nn3)c3ccc(F)c4ncccc34)cc12)C(F)(F)F [Example 917, (S)-6-(((1-(bicyclo[1.1.1]pentan-1-yl)-1H-1,2,3-triazol-4-yl)(8-fluoroquinolin-5-yl)methyl)amino)-8-chloro-4-((3,3,3-trifluoro-2,2-dimethylpropyl)amino)quinoline-3-carbonitrile] |  |  | EC50 (TNFα; [3]): 31 nM; IC50 (Human Cot; [4]): 3 nM |
| CC(C)n1cc([C@@H](Nc2cc(Cl)c3ncc(C#N)c(Nc4ccc(F)c(Cl)c4)c3c2)c2ccc3c(c2)CNCC3)nn1 [Example 50, (S)-8-chloro-4-((3-chloro-4-fluorophenyl)amino)-6-(((1-isopropyl-1H-1,2,3-triazol-4-yl)(1,2,3,4-tetrahydroisoquinolin-7-yl)methyl)amino)quinoline-3-carbonitrile] | 3530 | 70 |  |
| Cc1nc(F)ccc1[C@H](Nc1cc(-c2cncnc2)c2ncc(C#N)c(NCC(C)(C)C)c2c1)c1cn(C2(C(F)F)CC2)nn1 [Example 976] |  |  | EC50 (TNFα; [5]): 276 nM; IC50 (Human Cot; [6]): 21 nM |
| CC(C)(C)CNc1c(C#N)cnc2c(Cl)cc(N[C@H](c3cn(C4CCN(C(C)(C)C)CC4)nn3)c3cccc4ncsc34)cc12 [Example 419, (S)-6-((benzo[d]thiazol-7-yl(1-(1-(tert-butyl)piperidin-4-yl)-1H-1,2,3-triazol-4-yl)methyl)amino)-8-chloro-4-(neopentylamino)quinoline-3-carbonitrile] | 49 | 3 |  |
| CC(C)(C)CNc1c(C#N)cnc2c(Cl)cc(N[C@@H](c3cn(C4CC4)nn3)c3csc4c3CCN(C3COC3)C4)cc12 [Example 81, (R)-8-chloro-6-(((1-cyclopropyl-1H-1,2,3-triazol-4-yl)(6-(oxctan-3-yl)-4,5,6,7-tetrahydrothieno[2,3-c]pyridin-3-yl)methyl)amino)-4-(neopentylamino)-quinoline-3-carbonitrile] |  |  | EC50 (TNFα; [7]): > 1000 nM; IC50 (Human Cot; [8]): 400 nM |
| C[C@@H](Nc1c(C#N)cnc2c(Cl)cc(N[C@H](c3c[nH]nn3)c3csc4c3CCN(C3COC3)C4)cc12)c1ccccc1 [Example 238, 8-chloro-6-(((S)-(6-(oxetan-3-yl)-4,5,6,7-tetrahydrothieno[2,3-c]pyridin-3-yl)(1H-1,2,3-triazol-4-yl)methyl)amino)-4-(((R)-1-phenylethyl)amino)quinoline-3-carbonitrile] | 901 | 3 |  |
| N#Cc1cnc2c(Cl)cc(N[C@H](c3c[nH]nn3)c3ccc(F)nc3F)cc2c1Nc1cnc(F)c(F)c1 [Example 154, (S)-8-chloro-6-(((2,6-difluoropyridin-3-yl)(1H-1,2,3-triazol-4-yl)methyl)amino)-4-((5,6-difluoropyridin-3-yl)amino)quinoline-3-carbonitrile] | 1670 | 26 |  |
| N#Cc1cnc2c(Cl)cc(N[C@@H](c3cccnc3)c3cn(CCN4CCOCC4)nn3)cc2c1Nc1ccc(F)c(Cl)c1 [Example 335, (S)-8-chloro-4-((3-chloro-4-fluorophenyl)amino)-6-(((1-(2-morpholinoethyl)-1H-1,2,3-triazol-4-yl)(pyridin-3-yl)methyl)amino)-quinoiine-3-carbonitrile] |  |  | EC50 (TNFα; [7]): 405 nM; IC50 (Human Cot; [8]): 10 nM |
| CC(C)(C)CNc1c(C#N)cnc2c(C#N)cc(N[C@H](c3cn(C45CC(C4)C5)nn3)c3ccc(F)c4ncccc34)cc12 [Example 814, (S)-6-(((1-(bicyclo[1.1.1]pentan-1-yl)-1H-1,2,3-triazol-4-yl)(8-fluoroquinolin-5-yl)methyl)amino)-4-(neopentylamino)quinoline-3,8-dicarbonitrile] |  |  | EC50 (TNFα; [3]): 16 nM; IC50 (Human Cot; [4]): 2 nM |
| CC(C)(C)CNc1c(C#N)cnc2c(C#N)cc(N[C@H](c3cn(C4(C(F)(F)F)CC4)nn3)c3cccc4c(=O)[nH]ccc34)cc12 [Example 700, (S)-4-(neopentylamino)-6-(((1-oxo-1,2-dihydroisoquinolin-5-yl)(4-(1-1-(trifluoromethyl)-cyclopropyl)-1H-1,2,3-triazol-4-yl)methyl)amino)quinoline-3,8-dicarbonitrile] |  |  | EC50 (TNFα; [7]): 179 nM; IC50 (Human Cot; [8]): 2 nM |
| Cn1cnc2cccc([C@H](Nc3cc(Cl)c4ncc(C#N)c(NCC(C)(C)C)c4c3)c3cn(C4CC4)nn3)c21 [Example 459, (S)-8-chloro-6-(((1-cyclopropyl-1H-1,2,3-triazol-4-yl)(1-methyl-1H-benzo[d]imidazol-7-yl)methyl)amino)-4-(neopentylamino)quinoline-3-carbonitrile] | 50 | 3 |  |
| COCCOCCn1cc([C@@H](Nc2cc(Cl)c3ncc(C#N)c(Nc4ccc(F)c(Cl)c4)c3c2)c2cccnc2)nn1 [Example 340, (S)-8-chloro-4-((3-chloro-4-fluorophenyl)amino)-6-(((1-(2-(2-methoxyethoxy)ethyl)-1H-1,2,3-triazol-4-yl)(pyridin-3-yl)methyl)-amino)quinoline-3-carbonitrile] | 328 | 8 |  |
| CC[C@@H](Nc1c(C#N)cnc2c(Cl)cc(N[C@@H](c3cccnc3)c3c[nH]nn3)cc12)c1ccccc1 [Example 254, 8-chloro-4-(((R)-1-phenylpropyl)amino)-6-(((S)-pyridin-3-yl(1H-1,2,3-triazol-4-yl)methyl)amino)quinoline-3-carbonitrile] | 230 | 3 |  |
| Cc1nc(F)ccc1[C@@H](c1cn(C2(C(F)(F)F)CC2)nn1)N(C)c1cc(Cl)c2ncc(C#N)c(NCC(C)(C)C)c2c1 [Example 979, (S)-8-chloro-6-(((6-fluoro-2-methylpyridin-3-yl)(1-(1-(trifluoromethyl)cyclopropyl)-1H-1,2,3-triazol-4-yl)methyl)(methyl)amino)-4-(neopentylamino)quinoline-3-carbonitrile] |  |  | EC50 (TNFα; [3]): 1000 nM; IC50 (Human Cot; [4]): 244 nM |
| [2H]c1c([C@@H](Nc2cc(C#N)c3ncc(C#N)c(NCC(C)(C)C)c3c2)c2ccc(F)nc2C)nnn1C1(C(F)(F)F)CC1 [Example 574, (S)-6-(((6-fluoro-2-methylpyridin-3-yl)(1-(1-(trifluoromethyl)cyclopropyl)-1H-1,2,3-triazol-4-yl-5-d)methyl)amino)-4-(neopentylamino)quinoline-3,8-dicarbonitrile] | 86 | 4 |  |
| Cc1nc(F)ccc1[C@H](Nc1cc(C#N)c2ncc(C#N)c(NCC(C)(C)C)c2c1)c1cn(C2(C#N)CC2)nn1 [Example 489, (S)-6-(((1-(1-cyanocyclopropyl)-1H-1,2,3-triazol-4-yl)(6-fluoro-2-methylpyridin-3-yl)methyl)amino)-4-(neopentylamino)-quinoline-3,8-dicarbonitrile] | 129 | 2 |  |
| Cc1nc(F)ccc1[C@H](Nc1cc(C#N)c2ncc(C#N)c(NCC(C)(C)C)c2c1)c1nnn(C23CC(C2)C3)c1F [Example 954, (S)-6-(((1-(bicyclo[1.1.1]pentan-1-yl)-5-fluoro-1H-1,2,3-triazol-4-yl)(6-fluoro-2-methylpyridin-3-yl)methyl)amino)-4-(neopentylamino)quinoline-3,8-dicarbonitrile] |  |  | EC50 (TNFα; [3]): 16 nM; IC50 (Human Cot; [4]): 7 nM |
| Cc1nc([C@H](Nc2cc(C#N)c3ncc(C#N)c(NCC(C)(C)C)c3c2)c2cn(C3(C(F)F)CC3)nn2)c(C)o1 [Example 674, (S)-6-(((1-(1-(difluoromethyl)-cyclopropyl)-1H-1,2,3-triazol-4-yl)(2,5-dimethyloxazol-4-yl)methyl)amino)-4-(neopentylamino)quinoline-3,8-dicarbonitrile] | 301 | 22 |  |
| COc1nccc2c([C@H](Nc3cc(Cl)c4ncc(C#N)c(NCC(C)(C)C)c4c3)c3cn(C(CF)CF)nn3)cccc12 [Example 933, (S)-8-chloro-6-(((1-(1,3-difluoropropan-2-yl)-1H-1,2,3-triazol-4-yl)(1-methoxylsoquinolin-5-yl)methyl)amino)-4-(neopentylamino)quinoline-3-carbonitrile] |  |  | EC50 (TNFα; [5]): 247 nM; IC50 (Human Cot; [6]): 29 nM |
| Cc1nc(F)ccc1[C@H](Nc1cc(Cl)c2ncc(C#N)c(N[C@@H]3CCOC3(C)C)c2c1)c1cn(C2(C(F)F)CC2)nn1 [Example 515, 8-chloro-6-(((S)-(1-(1-(difluoromethyl)-cyclopropyl)-1H-1,2,3-triazol-4-yl)(6-fluoro-2-methylpyridin-3-yl)methyl)amino)-4-(((R)-2,2-dimethyltetrahydro-furan-3-yl)amino)quinoline-3-carbonitrile] | 1000 | 199 |  |
